Laboratory results as given in patent US8673914B2, “Use of phosphodiesterase inhibitors for treating multidrug resistance” (St. John's University, priority 2011, dated 2014).

Experiment: MTT cytotoxicity assay (Example 4)
Format: cell-based
Details: human; HEK/MRP7; alone; read-out: IC50 of paclitaxel
Method: The MRP7 cDNA was generously provided by Dr. Gary Kruh (University of Illinois, Chicago, Ill.) and inserted into the pcDNA3.1 expression vector. […] Individual colonies were selected in medium containing G418 (1 mg/ml) and cultured for further analysis.
MTT colorimetric assay was performed to analyze the drug sensitivity as previously described (Shi et al. (2007) Cancer Res. 67:11012-20). HEK293-pcDNA3.1 and HEK/MRP7 cells were seeded into 96-well plates in triplicate at 6000 cells/well.
After drug incubation of 68 h, 20 μl MTT solution (4 mg/ml) was added into each well. […] The Bliss method was used to calculate the IC50 values according to survival curves.

CC(=O)O[C@H]1C(=O)[C@@]2(C)[C@H]([C@H](OC(=O)c3ccccc3)[C@]3(O)C[C@H](OC(=O)[C@H](O)[C@@H](NC(=O)c4ccccc4)c4ccccc4)C(C)=C1C3(C)C)[C@]1(OC(C)=O)CO[C@@H]1C[C@@H]2O [Paclitaxel, paclitaxel]
IC50 at 68 h: 107 ± 11.2 nM
